The values that follow are results of earlier work, collected in patent publication US20090298951A1, “Nontoxic Biocidal Composition And Method Thereof” (priority 2008, published 2009).

The conditions of this data set: 20° C.

On to `C/C=C/C=C/C(=O)[O-].[K+]` [potassium sorbate, potassium (E,E)-hexa-2,4-dienoate], for which the soluble in water is 58.2%.
